Measured values published in US4352803A, “Novel naphthyridine derivatives, intermediates thereof, processes for preparation thereof, and use thereof” (Dainippon Pharmaceutical Co., Ltd., priority 1978, dated 1982).
Converted amounts (≈) assume the structure as drawn. Read-outs that look alike come from different tables or passages of the source.

Tests used:
[1] = test system: Staphylococcus aureus 209P JC-1; assay: In vitro antibacterial activity (MIC), Staphylococcus aureus 209P JC-1; format: cell-based; settings: read-out: minimum inhibitory concentration (MIC)
Source text: (§1) (MIC) (μg/ml) Method; Chemotherapy, 22(6), 1126 (1974)

[2] = test system: Staphylococcus aureus No. 50774; assay: In vitro antibacterial activity (MIC), Staphylococcus aureus No. 50774; format: cell-based
Source text: as §1

[3] = test system: Streptococcus faecalis P-2473; assay: In vitro antibacterial activity (MIC), Streptococcus faecalis P-2473; format: cell-based; settings: Enterococcus faecalis
Source text: as §1

[4] = test system: Streptococcus pyogenes 65A; assay: In vitro antibacterial activity (MIC), Streptococcus pyogenes 65A; format: cell-based; settings: read-out: minimum inhibitory concentration (MIC)
Source text: as §1

[5] = test system: Corynebacterium pyogenes C-21; assay: In vitro antibacterial activity (MIC), Corynebacterium pyogenes C-21; format: cell-based; settings: Rhodococcus (subgen. Prescottella) equi
Source text: as §1

[6] = test system: Escherichia coli NIHJ JC-2; assay: In vitro antibacterial activity (MIC), Escherichia coli NIHJ JC-2; format: cell-based
Source text: as §1

[7] = test system: Escherichia coli P-5101; assay: In vitro antibacterial activity (MIC), Escherichia coli P-5101; format: cell-based; settings: Escherichia coli, P5101, read-out: minimum inhibitory concentration (MIC)
Source text: as §1

[8] = test system: Escherichia coli P-140a; assay: In vitro antibacterial activity (MIC), Escherichia coli P-140a; format: cell-based; settings: Escherichia coli, read-out: minimum inhibitory concentration (MIC)
Source text: as §1

[9] = test system: Salmonella typhimurium 8-9; assay: In vitro antibacterial activity (MIC), Salmonella typhimurium 8-9; format: cell-based; settings: Salmonella enterica, read-out: minimum inhibitory concentration (MIC)
Source text: as §1

[10] = test system: Salmonella enteritidis No. 1891; assay: In vitro antibacterial activity (MIC), Salmonella enteritidis No. 1891; format: cell-based; settings: Salmonella enterica, read-out: minimum inhibitory concentration (MIC)
Source text: as §1

[11] = test system: Shigella flexneri 2a; assay: In vitro antibacterial activity (MIC), Shigella flexneri 2a; format: cell-based; settings: read-out: minimum inhibitory concentration (MIC)
Source text: as §1

[12] = test system: Shigella flexneri 4a P-330; assay: In vitro antibacterial activity (MIC), Shigella flexneri 4a P-330; format: cell-based; settings: 4AP330, read-out: minimum inhibitory concentration (MIC)
Source text: as §1

[13] = test system: Klebsiella pneumoniae No. 13; assay: In vitro antibacterial activity (MIC), Klebsiella pneumoniae No. 13; format: cell-based; settings: Klebsiella pneumoniae, NO.13, read-out: minimum inhibitory concentration (MIC)
Source text: as §1

[14] = test system: Enterobacter cloacae P-2540; assay: In vitro antibacterial activity (MIC), Enterobacter cloacae P-2540; format: cell-based
Source text: as §1

[15] = test system: Pseudomonas aeruginosa Tsuchijima; assay: In vitro antibacterial activity (MIC), Pseudomonas aeruginosa Tsuchijima; format: cell-based; settings: read-out: minimum inhibitory concentration (MIC)
Source text: as §1

[16] = test system: Pseudomonas aeruginosa No. 12; assay: In vitro antibacterial activity (MIC), Pseudomonas aeruginosa No. 12; format: cell-based
Source text: as §1

[17] = test system: Serratia marcescens IFC 3736; assay: In vitro antibacterial activity (MIC), Serratia marcescens IFC 3736; format: cell-based; settings: Serratia marcescens, IFC3736, read-out: minimum inhibitory concentration (MIC)
Source text: as §1

[18] = test system: Proteus morganii Kono; assay: In vitro antibacterial activity (MIC), Proteus morganii Kono; format: cell-based; settings: Morganella morganii, read-out: minimum inhibitory concentration (MIC)
Source text: as §1

[19] = test system: Proteus mirabilis P-2381; assay: In vitro antibacterial activity (MIC), Proteus mirabilis P-2381; format: cell-based; settings: P2381; Proteus mirabilis P-2381; read-out: minimum inhibitory concentration (MIC)
Source text: as §1

[20] = in vivo; settings: mouse, in vivo, po
Method: The number of dead mice was counted after 7 days, and the value of median lethal dose (LD50, mg/kg) was calculated in accordance with the Behrens-Kaerber method.

[21] = test system: Escherichia coli P-5101; assay: in vivo efficacy against systemic infection in mice, Escherichia coli P-5101; settings: P5101, in Mus musculus, po, 168 h
Method: Male mice (ddY) weighing about 20 g
Intraperitoneal infection with (about
9 × 10^6 cells/mouse) of a bacterial
(§2) suspension in trypto-soy broth with 4% mucin.
(§3) Twice, about 5 minutes and 6 hours after infection.

[22] = test system: Pseudomonas aeruginosa No. 12; assay: in vivo efficacy against systemic infection in mice, Pseudomonas aeruginosa No. 12; settings: NO.12, in Mus musculus, po, 168 h
Method: Male mice (ddY) weighing about 20 g
(3) Pseudomonas aeruginosa No. 12;
(about 5 × 10^3 cells/mouse) of a bacterial
as §2, §3
The numerals in the table show ED50 (mg/kg). ED50 values were

[23] = test system: Staphylococcus aureus No. 50774; assay: in vivo efficacy against systemic infection in mice, Staphylococcus aureus No. 50774; settings: NO.50774, in Mus musculus, po, 336 h
Method: Male mice (ddY) weighing about 20 g
Intravenous infection with (about
5 × 10^8 cells/mouse) of a bacterial
as §3

[24] = test system: Gram-positive and Gram-negative bacteria; assay: in vivo therapeutic efficacy against systemic infections in mice (overall); parameters: species or system mice (ddY); settings: Gram-negative, particularly Pseudomonas aeruginosa

For `CCn1cc(C(=O)O)c(=O)c2cc(Cl)c(N3CCNCC3)nc21.Cl` [Compound 3, 6-Chloro-1-ethyl-1,4-dihydro-4-oxo-7-(1-piperazinyl)-1,8-naphthyridine-3-carboxylic acid hydrochloride], the MIC ([1]; Staphylococcus aureus 209P JC-1) was 3.13 µg/mL, the MIC ([2]; Staphylococcus aureus No. 50774, read-out: minimum inhibitory concentration (MIC)) was 6.25 µg/mL and the MIC ([3]; P2473, Streptococcus faecalis P-2473, read-out: minimum inhibitory concentration (MIC)) was 25 µg/mL. For the same molecule, the MIC ([4]; Streptococcus pyogenes 65A) was 12.5 µg/mL, the MIC ([5]; C21, Corynebacterium pyogenes C-21, read-out: minimum inhibitory concentration (MIC)) was 6.25 µg/mL and the MIC ([6]; NIHJJC2, Escherichia coli NIHJ JC-2, read-out: minimum inhibitory concentration (MIC)) was 0.78 µg/mL. For the same molecule, the MIC [7] was 0.39 µg/mL, the MIC [8] was 0.39 µg/mL and the MIC ([9]; Salmonella typhimurium 8-9) was 0.39 µg/mL. It also gave an MIC ([10]; Salmonella enteritidis No. 1891) of 0.39 µg/mL, an MIC [11] of 0.78 µg/mL and an MIC [12] of 1.56 µg/mL. It also gave an MIC [13] of 1.56 µg/mL, an MIC ([14]; P2540, Enterobacter cloacae P-2540, read-out: minimum inhibitory concentration (MIC)) of 0.78 µg/mL and an MIC ([15]; Pseudomonas aeruginosa Tsuchijima) of 6.25 µg/mL. It also gave an MIC ([16]; Pseudomonas aeruginosa No. 12, read-out: minimum inhibitory concentration (MIC)) of 6.25 µg/mL, an MIC [17] of 1.56 µg/mL and an MIC [18] of 1.56 µg/mL. For the same molecule, the MIC [19] was 3.13 µg/mL, the LD50 at 168 h [20] was > 2000 mg/kg and the ED50 [21] was 6.5 mg/kg. The ED50 [22] was 58.6 mg/kg and the ED50 [23] was ~90 mg/kg.

With `CCn1cc(C(=O)O)c(=O)c2ccc(C)nc21` [E, 1-Ethyl-1,4-dihydro-7-methyl-4-oxo-1,8-naphthyridine-3-carboxylic acid] the MIC ([1]; Staphylococcus aureus, 209P) was 100 µg/mL (≈ 431 µM), the MIC ([2]; Staphylococcus aureus, NO.50774, read-out: minimum inhibitory concentration (MIC)) was 50 µg/mL (≈ 215 µM) and the MIC ([3]; P2473, read-out: minimum inhibitory concentration (MIC)) was > 200 µg/mL. For the same molecule, the MIC ([4]; Streptococcus pyogenes, 65A) was > 200 µg/mL, the MIC ([5]; C21, read-out: minimum inhibitory concentration (MIC)) was > 200 µg/mL and the MIC ([6]; Escherichia coli, NIHJJC2, read-out: minimum inhibitory concentration (MIC)) was 12.5 µg/mL (≈ 53.8 µM). It also gave an MIC [7] of 3.13 µg/mL (≈ 13.5 µM), an MIC ([9]; TYPHIMURIUM) of 3.13 µg/mL (≈ 13.5 µM) and an MIC ([10]; ENTERITIDIS) of 3.13 µg/mL (≈ 13.5 µM). The MIC [11] was 6.25 µg/mL (≈ 26.9 µM), the MIC [13] was 12.5 µg/mL (≈ 53.8 µM) and the MIC ([14]; Enterobacter cloacae, P2540, read-out: minimum inhibitory concentration (MIC)) was 6.25 µg/mL (≈ 26.9 µM). It also gave an MIC ([15]; Pseudomonas aeruginosa) of 200 µg/mL (≈ 861 µM), an MIC ([16]; Pseudomonas aeruginosa, NO.12, read-out: minimum inhibitory concentration (MIC)) of 200 µg/mL (≈ 861 µM) and an MIC [17] of 6.25 µg/mL (≈ 26.9 µM). The MIC [18] was 6.25 µg/mL (≈ 26.9 µM), the “therapeutic effects in vivo against Gram-negative bacteria, relative to compounds 1, 1' and 2” value [24] was “clearly inferior” and the ED50 [21] was 29.2 mg/kg. The ED50 [22] was > 200 mg/kg and the ED50 [23] was > 800 mg/kg.
